Measured values: ChEMBL document CHEMBL4507293 (2021)

Tests used:
[1] = biological target: Tyrosine-protein kinase HCK (Homo sapiens) (UniProt P08631); details: Compound concentration 100.0 nM
[2] = tested on: Phosphatidylinositol 4,5-bisphosphate 3-kinase catalytic subunit alpha isoform (Homo sapiens), P42336 [E545A]; details: Compound concentration 100.0 nM
[3] = biological target: Mitogen-activated protein kinase kinase kinase 11 (Homo sapiens) (UniProt Q16584); details: Compound concentration 100.0 nM
[4] = biological target: Mitogen-activated protein kinase kinase kinase 5 (Homo sapiens) (UniProt Q99683); details: Compound concentration 100.0 nM
[5] = biological target: Testis-specific serine/threonine-protein kinase 1 (Homo sapiens) (UniProt Q9BXA7); details: Compound concentration 100.0 nM
[6] = biological target: Histamine H4 receptor (Homo sapiens) (UniProt Q9H3N8); details: Compound concentration 10.0 uM
[7] = biological target: Serine/threonine-protein kinase DCLK1 (Homo sapiens) (UniProt O15075); details: Compound concentration 100.0 nM
[8] = biological target: Serine/threonine-protein kinase N1 (Homo sapiens) (UniProt Q16512); details: Compound concentration 100.0 nM
[9] = biological target: Cyclin-dependent kinase 2 homolog (Plasmodium falciparum (isolate 3D7)) (UniProt P61075); details: Compound concentration 100.0 nM
[10] = biological target: Bone morphogenetic protein receptor type-1A (Homo sapiens) (UniProt P36894); details: Compound concentration 100.0 nM
[11] = biological target: Cyclin-dependent kinase-like 2 (Homo sapiens) (UniProt Q92772); details: Compound concentration 100.0 nM
[12] = biological target: Mitogen-activated protein kinase kinase kinase 6 (Homo sapiens) (UniProt O95382); details: Compound concentration 100.0 nM
[13] = biological target: Phosphatidylinositol 3-kinase catalytic subunit type 3 (Homo sapiens) (UniProt Q8NEB9); details: Compound concentration 100.0 nM
[14] = biological target: Microtubule-associated serine/threonine-protein kinase 1 (Homo sapiens) (UniProt Q9Y2H9); details: Compound concentration 100.0 nM
[15] = biological target: Inhibitor of nuclear factor kappa-B kinase subunit alpha (Homo sapiens) (UniProt O15111); details: Compound concentration 100.0 nM
[16] = biological target: Mitogen-activated protein kinase 6 (Homo sapiens) (UniProt Q16659); details: Compound concentration 100.0 nM
[17] = biological target: Serine/threonine-protein kinase 26 (Homo sapiens) (UniProt Q9P289); details: Compound concentration 100.0 nM
[18] = biological target: 5-hydroxytryptamine receptor 7 (Homo sapiens, UniProt P34969); details: Compound concentration 10.0 uM
[19] = biological target: Serine/threonine-protein kinase Nek2 (Homo sapiens) (UniProt P51955); details: Compound concentration 100.0 nM
[20] = biological target: Activated CDC42 kinase 1 (Homo sapiens) (UniProt Q07912); details: Compound concentration 100.0 nM
[21] = biological target: 5-hydroxytryptamine receptor 1E (Homo sapiens) (UniProt P28566); details: Compound concentration 10.0 uM
[22] = tested on: Mast/stem cell growth factor receptor Kit (Homo sapiens), P10721 [V559D]; details: Compound concentration 100.0 nM
[23] = biological target: Serine/threonine-protein kinase TAO2 (Homo sapiens) (UniProt Q9UL54); details: Compound concentration 100.0 nM
[24] = biological target: MAP kinase-interacting serine/threonine-protein kinase 1 (Homo sapiens) (UniProt Q9BUB5); details: Compound concentration 100.0 nM
[25] = biological target: Ephrin type-A receptor 7 (Homo sapiens) (UniProt Q15375); details: Compound concentration 100.0 nM
[26] = biological target: Serine/threonine-protein kinase NLK (Homo sapiens) (UniProt Q9UBE8); details: Compound concentration 100.0 nM
[27] = biological target: Cyclin-dependent kinase 18 (Homo sapiens) (UniProt Q07002); details: Compound concentration 100.0 nM
[28] = biological target: Casein kinase I isoform gamma-2 (Homo sapiens) (UniProt P78368); details: Compound concentration 100.0 nM
[29] = biological target: Phosphatidylinositol 4,5-bisphosphate 3-kinase catalytic subunit beta isoform (Homo sapiens) (UniProt P42338); details: Compound concentration 100.0 nM
[30] = biological target: Casein kinase II subunit alpha' (Homo sapiens) (UniProt P19784); details: Compound concentration 100.0 nM
[31] = biological target: Activin receptor type-1B (Homo sapiens) (UniProt P36896); details: Compound concentration 100.0 nM
[32] = biological target: Mitogen-activated protein kinase kinase kinase 13 (Homo sapiens) (UniProt O43283); details: Compound concentration 100.0 nM
[33] = biological target: Ribosomal protein S6 kinase alpha-6 (Homo sapiens) (UniProt Q9UK32); details: Compound concentration 100.0 nM
[34] = biological target: High affinity 3',5'-cyclic-AMP phosphodiesterase 7A (Homo sapiens, UniProt Q13946); assay: Biochemical assay (PDE7A)
[35] = biological target: Ankyrin repeat and protein kinase domain-containing protein 1 (Homo sapiens) (UniProt Q8NFD2); details: Compound concentration 100.0 nM
[36] = biological target: Serine/threonine-protein kinase RIO1 (Homo sapiens) (UniProt Q9BRS2); details: Compound concentration 100.0 nM
[37] = biological target: Histamine H2 receptor (Homo sapiens) (UniProt P25021); details: Compound concentration 10.0 uM
[38] = tested on: Tyrosine-protein kinase ABL1 (Homo sapiens), P00519 [F317L]; details: Compound concentration 100.0 nM
[39] = biological target: Serine/threonine-protein kinase Nek6 (Homo sapiens) (UniProt Q9HC98); details: Compound concentration 100.0 nM
[40] = biological target: Serine/threonine-protein kinase D2 (Homo sapiens) (UniProt Q9BZL6); details: Compound concentration 100.0 nM
[41] = biological target: Calcium/calmodulin-dependent protein kinase type II subunit delta (Homo sapiens) (UniProt Q13557); details: Compound concentration 100.0 nM
[42] = biological target: Calcium/calmodulin-dependent protein kinase type II subunit alpha (Homo sapiens) (UniProt Q9UQM7); details: Compound concentration 100.0 nM
[43] = biological target: Serine/threonine-protein kinase 17A (Homo sapiens) (UniProt Q9UEE5); details: Compound concentration 100.0 nM
[44] = biological target: Serine/threonine-protein kinase WNK4 (Homo sapiens) (UniProt Q96J92); details: Compound concentration 100.0 nM
[45] = biological target: SNF-related serine/threonine-protein kinase (Homo sapiens) (UniProt Q9NRH2); details: Compound concentration 100.0 nM
Chain of SNF-related serine/threonine-protein kinase (Homo sapiens) (Q9NRH2 whole entry): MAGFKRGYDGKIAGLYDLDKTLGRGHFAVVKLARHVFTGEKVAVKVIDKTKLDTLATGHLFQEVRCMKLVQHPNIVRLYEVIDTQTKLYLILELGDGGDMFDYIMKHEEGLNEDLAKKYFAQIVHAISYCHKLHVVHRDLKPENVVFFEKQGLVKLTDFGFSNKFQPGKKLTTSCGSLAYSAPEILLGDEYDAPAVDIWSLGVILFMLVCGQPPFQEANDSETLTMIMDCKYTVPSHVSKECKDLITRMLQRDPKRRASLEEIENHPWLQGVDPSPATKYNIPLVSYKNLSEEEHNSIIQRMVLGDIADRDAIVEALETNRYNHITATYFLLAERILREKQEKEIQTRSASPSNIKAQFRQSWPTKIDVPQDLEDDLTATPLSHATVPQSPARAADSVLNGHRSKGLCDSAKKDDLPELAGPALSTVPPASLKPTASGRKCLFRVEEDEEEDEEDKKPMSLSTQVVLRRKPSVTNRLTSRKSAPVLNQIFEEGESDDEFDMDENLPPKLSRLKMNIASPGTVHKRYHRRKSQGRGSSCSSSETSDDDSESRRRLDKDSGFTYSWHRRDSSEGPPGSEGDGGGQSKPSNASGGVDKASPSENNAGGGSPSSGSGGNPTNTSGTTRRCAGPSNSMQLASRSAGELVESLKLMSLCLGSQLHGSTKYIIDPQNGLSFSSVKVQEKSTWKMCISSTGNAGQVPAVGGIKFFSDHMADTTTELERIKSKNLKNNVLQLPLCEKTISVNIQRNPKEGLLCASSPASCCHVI

Chain of Ephrin type-A receptor 7 (Homo sapiens) (Q15375 28-998 limits assumed): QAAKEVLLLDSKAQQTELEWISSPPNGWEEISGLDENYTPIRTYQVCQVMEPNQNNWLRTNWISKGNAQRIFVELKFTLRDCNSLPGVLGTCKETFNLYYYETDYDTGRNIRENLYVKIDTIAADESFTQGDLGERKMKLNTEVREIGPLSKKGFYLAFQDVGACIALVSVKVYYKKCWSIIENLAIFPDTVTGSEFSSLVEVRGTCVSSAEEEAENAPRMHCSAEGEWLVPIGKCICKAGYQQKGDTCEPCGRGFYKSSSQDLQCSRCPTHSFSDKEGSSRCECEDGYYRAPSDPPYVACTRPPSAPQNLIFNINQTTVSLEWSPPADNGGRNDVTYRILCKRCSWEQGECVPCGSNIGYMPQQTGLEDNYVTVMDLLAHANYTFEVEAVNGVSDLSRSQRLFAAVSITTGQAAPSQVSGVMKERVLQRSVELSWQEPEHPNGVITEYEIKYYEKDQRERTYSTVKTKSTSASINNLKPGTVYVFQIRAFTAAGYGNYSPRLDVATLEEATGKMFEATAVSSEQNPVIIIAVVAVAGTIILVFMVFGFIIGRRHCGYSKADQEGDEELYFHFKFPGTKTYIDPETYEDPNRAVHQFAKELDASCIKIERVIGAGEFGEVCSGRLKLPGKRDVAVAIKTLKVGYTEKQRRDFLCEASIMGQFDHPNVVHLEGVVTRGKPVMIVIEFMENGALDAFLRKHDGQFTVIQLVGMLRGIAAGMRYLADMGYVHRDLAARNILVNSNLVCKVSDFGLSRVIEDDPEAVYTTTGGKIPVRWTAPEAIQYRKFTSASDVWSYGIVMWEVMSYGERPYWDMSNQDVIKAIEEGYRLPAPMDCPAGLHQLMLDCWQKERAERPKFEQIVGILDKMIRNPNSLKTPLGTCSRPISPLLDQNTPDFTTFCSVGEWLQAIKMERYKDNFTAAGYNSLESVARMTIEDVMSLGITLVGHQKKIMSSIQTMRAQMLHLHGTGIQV
Chain of Cyclin-dependent kinase 18 (Homo sapiens) (Q07002 whole entry, canonical isoform): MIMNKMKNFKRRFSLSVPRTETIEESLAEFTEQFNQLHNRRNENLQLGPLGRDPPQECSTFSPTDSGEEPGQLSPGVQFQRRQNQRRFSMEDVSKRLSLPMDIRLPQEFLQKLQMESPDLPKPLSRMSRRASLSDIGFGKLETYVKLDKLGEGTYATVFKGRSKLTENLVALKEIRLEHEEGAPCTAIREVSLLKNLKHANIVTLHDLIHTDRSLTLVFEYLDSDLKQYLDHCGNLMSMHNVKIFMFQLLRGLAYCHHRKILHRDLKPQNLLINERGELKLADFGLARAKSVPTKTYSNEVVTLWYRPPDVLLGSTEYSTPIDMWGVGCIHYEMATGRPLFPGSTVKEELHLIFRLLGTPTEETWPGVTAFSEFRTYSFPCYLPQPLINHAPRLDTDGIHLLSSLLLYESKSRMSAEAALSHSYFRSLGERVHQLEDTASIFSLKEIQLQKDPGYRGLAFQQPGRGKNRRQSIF
Chain of Serine/threonine-protein kinase 26 (Homo sapiens) (Q9P289 2-416 limits assumed): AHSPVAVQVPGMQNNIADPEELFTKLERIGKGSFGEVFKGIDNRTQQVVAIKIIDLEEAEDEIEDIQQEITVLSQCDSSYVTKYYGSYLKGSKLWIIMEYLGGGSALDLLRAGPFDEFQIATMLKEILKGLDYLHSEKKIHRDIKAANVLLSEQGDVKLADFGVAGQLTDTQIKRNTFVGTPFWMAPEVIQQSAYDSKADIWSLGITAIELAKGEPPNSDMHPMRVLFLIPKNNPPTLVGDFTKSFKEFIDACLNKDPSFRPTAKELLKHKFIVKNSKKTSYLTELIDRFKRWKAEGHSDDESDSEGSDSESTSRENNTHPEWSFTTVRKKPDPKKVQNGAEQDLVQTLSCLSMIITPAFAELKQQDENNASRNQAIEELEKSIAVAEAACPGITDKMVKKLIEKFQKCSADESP
Chain of Phosphatidylinositol 3-kinase catalytic subunit type 3 (Homo sapiens) (Q8NEB9 whole entry): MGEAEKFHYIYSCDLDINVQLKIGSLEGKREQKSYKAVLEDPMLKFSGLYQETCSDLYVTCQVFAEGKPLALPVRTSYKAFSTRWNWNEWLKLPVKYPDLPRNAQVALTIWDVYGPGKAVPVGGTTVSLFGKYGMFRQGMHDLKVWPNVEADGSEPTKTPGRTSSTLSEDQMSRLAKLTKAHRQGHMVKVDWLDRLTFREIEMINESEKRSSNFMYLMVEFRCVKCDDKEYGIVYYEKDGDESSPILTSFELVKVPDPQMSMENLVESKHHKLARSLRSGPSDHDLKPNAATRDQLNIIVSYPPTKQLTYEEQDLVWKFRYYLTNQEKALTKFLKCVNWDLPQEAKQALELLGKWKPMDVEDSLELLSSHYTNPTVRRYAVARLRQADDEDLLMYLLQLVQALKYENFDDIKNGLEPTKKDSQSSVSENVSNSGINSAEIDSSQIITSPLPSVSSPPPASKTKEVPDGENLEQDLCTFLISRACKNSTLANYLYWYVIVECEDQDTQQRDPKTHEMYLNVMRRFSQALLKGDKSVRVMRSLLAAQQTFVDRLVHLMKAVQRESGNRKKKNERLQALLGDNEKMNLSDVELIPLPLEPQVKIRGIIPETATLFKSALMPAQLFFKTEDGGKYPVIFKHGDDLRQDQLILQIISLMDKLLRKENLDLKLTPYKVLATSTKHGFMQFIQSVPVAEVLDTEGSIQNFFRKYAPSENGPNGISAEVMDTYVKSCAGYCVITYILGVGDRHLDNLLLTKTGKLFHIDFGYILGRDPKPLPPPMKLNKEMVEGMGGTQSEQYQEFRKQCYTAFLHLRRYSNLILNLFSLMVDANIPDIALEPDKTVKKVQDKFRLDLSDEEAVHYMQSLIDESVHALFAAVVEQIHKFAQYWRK
Chain of Serine/threonine-protein kinase NLK (Homo sapiens) (Q9UBE8 whole entry): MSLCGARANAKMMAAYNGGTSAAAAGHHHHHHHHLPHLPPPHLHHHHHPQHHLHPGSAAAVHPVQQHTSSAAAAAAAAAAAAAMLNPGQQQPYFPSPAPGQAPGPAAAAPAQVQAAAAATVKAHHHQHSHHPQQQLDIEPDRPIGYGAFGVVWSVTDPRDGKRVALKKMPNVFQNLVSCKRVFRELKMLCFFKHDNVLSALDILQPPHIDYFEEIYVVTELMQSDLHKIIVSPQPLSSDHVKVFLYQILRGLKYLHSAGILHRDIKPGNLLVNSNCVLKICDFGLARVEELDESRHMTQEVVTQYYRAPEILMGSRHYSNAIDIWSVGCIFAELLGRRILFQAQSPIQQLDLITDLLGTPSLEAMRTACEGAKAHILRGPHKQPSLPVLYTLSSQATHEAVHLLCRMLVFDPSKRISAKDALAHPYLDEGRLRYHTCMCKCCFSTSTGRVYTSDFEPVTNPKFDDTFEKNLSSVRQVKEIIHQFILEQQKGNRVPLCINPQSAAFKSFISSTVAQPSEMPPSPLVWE
Chain of Tyrosine-protein kinase HCK (Homo sapiens) (P08631 2-526 limits assumed): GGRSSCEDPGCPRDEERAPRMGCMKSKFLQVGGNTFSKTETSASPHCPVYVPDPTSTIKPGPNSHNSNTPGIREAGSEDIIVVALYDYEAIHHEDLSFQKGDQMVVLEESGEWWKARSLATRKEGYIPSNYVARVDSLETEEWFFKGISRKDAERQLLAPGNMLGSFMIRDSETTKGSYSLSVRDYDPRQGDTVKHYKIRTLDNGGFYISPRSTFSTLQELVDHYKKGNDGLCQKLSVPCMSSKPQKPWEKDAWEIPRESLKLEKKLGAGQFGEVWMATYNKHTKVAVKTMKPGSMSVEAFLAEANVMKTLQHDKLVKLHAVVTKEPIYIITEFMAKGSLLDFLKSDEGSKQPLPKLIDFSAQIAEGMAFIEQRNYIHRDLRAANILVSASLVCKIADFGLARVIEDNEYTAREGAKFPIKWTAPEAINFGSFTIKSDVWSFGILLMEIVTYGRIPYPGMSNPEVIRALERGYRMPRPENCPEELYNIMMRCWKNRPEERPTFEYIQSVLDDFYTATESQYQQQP
Chain of 5-hydroxytryptamine receptor 7 (P34969 whole entry): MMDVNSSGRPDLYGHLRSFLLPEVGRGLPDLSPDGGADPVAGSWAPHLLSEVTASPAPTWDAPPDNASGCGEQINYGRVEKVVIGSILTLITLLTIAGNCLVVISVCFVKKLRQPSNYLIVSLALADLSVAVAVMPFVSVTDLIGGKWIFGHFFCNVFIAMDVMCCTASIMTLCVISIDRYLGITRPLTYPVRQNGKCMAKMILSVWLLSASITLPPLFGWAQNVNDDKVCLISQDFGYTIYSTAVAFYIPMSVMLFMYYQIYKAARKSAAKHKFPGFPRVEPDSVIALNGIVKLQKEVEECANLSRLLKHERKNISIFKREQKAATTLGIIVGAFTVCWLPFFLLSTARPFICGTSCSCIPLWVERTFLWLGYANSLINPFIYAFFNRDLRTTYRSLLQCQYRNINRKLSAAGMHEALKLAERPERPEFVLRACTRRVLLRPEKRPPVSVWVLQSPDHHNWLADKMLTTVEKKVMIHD

COCCOc1nc(-c2ccc(Cl)nc2)nc2c1CN(C(=O)c1ncn3ccccc13)CC2 [THPP-1]
residual activity [1]: 100% | residual activity [2]: 100% | residual activity [3]: 100% | residual activity [4]: 84% | residual activity [5]: 100% | inhibition [6]: -6.39% | residual activity [7]: 100% | residual activity [8]: 100% | residual activity [9]: 100% | residual activity [10]: 82% | residual activity [11]: 98% | residual activity [12]: 100% | residual activity [13]: 100% | residual activity [14]: 100% | residual activity [15]: 100% | residual activity [16]: 100% | residual activity [17]: 100% | inhibition [18]: 42.3% | residual activity [19]: 100% | residual activity [20]: 100% | inhibition [21]: 6.95% | residual activity [22]: 100% | residual activity [23]: 99% | residual activity [24]: 77% | residual activity [25]: 100% | residual activity [26]: 100% | residual activity [27]: 100% | residual activity [28]: 94% | residual activity [29]: 100% | residual activity [30]: 100% | residual activity [31]: 86% | residual activity [32]: 87% | residual activity [33]: 100% | Ki [34]: 11.2 µM (not active) | residual activity [35]: 100% | residual activity [36]: 93% | inhibition [37]: -0.24% | residual activity [38]: 100% | residual activity [39]: 100% | residual activity [40]: 100% | residual activity [41]: 100% | residual activity [42]: 100% | residual activity [43]: 79% | residual activity [44]: 100% | residual activity [45]: 79%

CC(C)CC(=O)N1CCc2nc(-c3ccc(Br)cc3)nc(N(C)Cc3ccccc3)c2C1 [THPP-1-NC]
residual activity [1]: 94% | residual activity [2]: 100% | residual activity [3]: 100% | residual activity [4]: 91% | residual activity [5]: 99% | inhibition [6]: -7.78% | residual activity [7]: 100% | residual activity [8]: 100% | residual activity [9]: 100% | residual activity [10]: 93% | residual activity [11]: 87% | residual activity [12]: 100% | residual activity [13]: 100% | residual activity [14]: 100% | residual activity [15]: 100% | residual activity [16]: 100% | residual activity [17]: 100% | inhibition [18]: 64.5% | residual activity [19]: 100% | residual activity [20]: 99% | inhibition [21]: -5.76% | residual activity [22]: 100% | residual activity [23]: 97% | residual activity [24]: 69% | residual activity [25]: 99% | residual activity [26]: 100% | residual activity [27]: 100% | residual activity [28]: 86% | residual activity [29]: 100% | residual activity [30]: 88% | residual activity [31]: 89% | residual activity [32]: 66% | residual activity [33]: 100% | Ki [34]: > 25.3 µM (not active) | residual activity [35]: 100% | residual activity [36]: 98% | inhibition [37]: 3.39% | residual activity [38]: 100% | residual activity [39]: 100% | residual activity [40]: 100% | residual activity [41]: 100% | residual activity [42]: 100% | residual activity [43]: 96% | residual activity [44]: 100% | residual activity [45]: 84%
